According to publication PMC5218480 (PLoS ONE, 2017):

System: MV-4-11 cells
Experiment: Gene expression microarray analysis (Affymetrix PrimeView) and GSEA
Assay type: cell-based, human
Design: RFU PODN (11730768_x_at) / Fold change /veh PODN (11730768_x_at) / RFU LINC00158 (11744669_a_at) / Fold change /veh LINC00158 (11744669_a_at) / RFU DUSP10 (11751237_a_at) / Fold change /veh DUSP10 (11751237_a_at) / RFU ID3 (11757404_x_at) / Fold change /veh ID3 (11757404_x_at) / RFU PLEKHG5 (11737974_s_at) / Fold change /veh PLEKHG5 (11737974_s_at) / RFU LRRC4B (11730491_at) / Fold change /veh LRRC4B (11730491_at) / RFU GIMAP4 (11747438_a_at) / Fold change /veh GIMAP4 (11747438_a_at) / RFU KRT8 (11758183_x_at) / Fold change /veh KRT8 (11758183_x_at) / RFU CNN1 (11734310_a_at) / Fold change /veh CNN1 (11734310_a_at) / RFU VPS37D (11726825_at) / Fold change /veh VPS37D (11726825_at) / RFU C10orf10 (11716522_x_at) / Fold change /veh C10orf10 (11716522_x_at) / RFU KIR2DL2 /// KIR2DL4 /// KIR2DL5A /// KIR2DL5B /// KIR2DS1 /// KIR2DS2 /// KIR2DS3 /// KIR2DS4 /// KIR3DL3 /// KIR3DL3 /// KIR3DS1 (11738374_at) / Fold change /veh KIR2DL2 /// KIR2DL4 /// KIR2DL5A /// KIR2DL5B /// KIR2DS1 /// KIR2DS2 /// KIR2DS3 /// KIR2DS4 /// KIR3DL3 /// KIR3DL3 /// KIR3DS1 (11738374_at) / RFU C1QL1 (11718748_at) / Fold change /veh C1QL1 (11718748_at) / RFU TMPRSS4 (11747572_a_at) / Fold change /veh TMPRSS4 (11747572_a_at) / RFU HAMP (11756126_x_at) / Fold change /veh HAMP (11756126_x_at) / RFU RNFT2 (11725882_a_at) / Fold change /veh RNFT2 (11725882_a_at) / RFU NR4A2 (11747474_a_at) / Fold change /veh NR4A2 (11747474_a_at) / RFU ABCC12 (11746883_a_at) / Fold change /veh ABCC12 (11746883_a_at) / RFU TMEM136 (11760407_x_at) / Fold change /veh TMEM136 (11760407_x_at) / RFU CLDN22 /// WWC2 (11732394_at) / Fold change /veh CLDN22 /// WWC2 (11732394_at) / RFU HLA-DPB1 (11760878_x_at) / Fold change /veh HLA-DPB1 (11760878_x_at) / RFU SPINT1 (11716480_a_at) / Fold change /veh SPINT1 (11716480_a_at) / RFU GAP43 (11754022_s_at) / Fold change /veh GAP43 (11754022_s_at) / RFU A4GNT (11735810_at) / Fold change /veh A4GNT (11735810_at) / RFU PRB3 (11715151_x_at) / Fold change /veh PRB3 (11715151_x_at) / RFU TUBB4B (11761932_at) / Fold change /veh TUBB4B (11761932_at) / RFU CAPN14 (11732068_a_at) / Fold change /veh CAPN14 (11732068_a_at) / RFU TMCC2 (11721928_a_at) / Fold change /veh TMCC2 (11721928_a_at) / RFU IRGQ (11745062_a_at) / Fold change /veh IRGQ (11745062_a_at) / RFU FAM174B (11720279_a_at) / Fold change /veh FAM174B (11720279_a_at) / RFU TMPRSS4 (11748680_a_at) / Fold change /veh TMPRSS4 (11748680_a_at) / RFU FAM212B (11763350_a_at) / Fold change /veh FAM212B (11763350_a_at) / RFU PLEKHG5 (11743358_a_at) / Fold change /veh PLEKHG5 (11743358_a_at) / RFU ZSCAN30 (11745921_a_at) / Fold change /veh ZSCAN30 (11745921_a_at) / RFU CMKLR1 (11741424_a_at) / Fold change /veh CMKLR1 (11741424_a_at) / RFU LOC101060620 /// MAPK8IP1 (11723275_at) / Fold change /veh LOC101060620 /// MAPK8IP1 (11723275_at) / RFU SPTSSB (11747773_x_at) / Fold change /veh SPTSSB (11747773_x_at) / RFU PRSS12 (11739890_at) / Fold change /veh PRSS12 (11739890_at) / RFU BIN1 (11741810_x_at) / Fold change /veh BIN1 (11741810_x_at) / RFU WNT11 (11732464_a_at) / Fold change /veh WNT11 (11732464_a_at) / RFU C10orf10 (11716521_a_at) / Fold change /veh C10orf10 (11716521_a_at) / RFU C5orf56 (11738089_at) / Fold change /veh C5orf56 (11738089_at) / RFU CYB561 (11721691_x_at) / Fold change /veh CYB561 (11721691_x_at) / RFU ANKRD19P (11752326_a_at) / Fold change /veh ANKRD19P (11752326_a_at) / RFU OR2T12 /// OR2T33 /// OR2T8 (11738714_s_at) / Fold change /veh OR2T12 /// OR2T33 /// OR2T8 (11738714_s_at) / RFU VCAN (11748164_a_at) / Fold change /veh VCAN (11748164_a_at) / RFU JSRP1 (11732532_at) / Fold change /veh JSRP1 (11732532_at) / RFU KRTAP10-11 (11738290_x_at) / Fold change /veh KRTAP10-11 (11738290_x_at) / RFU MYO3A (11730013_a_at) / Fold change /veh MYO3A (11730013_a_at) / RFU EBF3 (11725865_a_at) / Fold change /veh EBF3 (11725865_a_at) / RFU CAMK2N1 (11719241_x_at) / Fold change /veh CAMK2N1 (11719241_x_at) / RFU C5orf56 (11738088_a_at) / Fold change /veh C5orf56 (11738088_a_at) / RFU OLFML3 (11715873_a_at) / Fold change /veh OLFML3 (11715873_a_at) / RFU LOC100653217 /// NTM (11731650_a_at) / Fold change /veh LOC100653217 /// NTM (11731650_a_at) / RFU MAPK11 (11762145_a_at) / Fold change /veh MAPK11 (11762145_a_at) / RFU FIZ1 (11724087_x_at) / Fold change /veh FIZ1 (11724087_x_at) / RFU OASL (11726364_x_at) / Fold change /veh OASL (11726364_x_at) / RFU SOX15 (11748057_x_at) / Fold change /veh SOX15 (11748057_x_at) / RFU CD79A (11719716_a_at) / Fold change /veh CD79A (11719716_a_at) / RFU HIST1H1D (11736915_at) / Fold change /veh HIST1H1D (11736915_at) / RFU CASKIN2 (11723855_a_at) / Fold change /veh CASKIN2 (11723855_a_at) / RFU LOC730098 (11760151_x_at) / Fold change /veh LOC730098 (11760151_x_at) / RFU OR4N2 (11742367_at) / Fold change /veh OR4N2 (11742367_at) / RFU PRRT2 (11749266_a_at) / Fold change /veh PRRT2 (11749266_a_at) / RFU SNX32 (11753110_a_at) / Fold change /veh SNX32 (11753110_a_at) / RFU CDHR5 (11726645_a_at) / Fold change /veh CDHR5 (11726645_a_at) / RFU RCAN1 (11760418_a_at) / Fold change /veh RCAN1 (11760418_a_at) / RFU FAM167A (11723789_a_at) / Fold change /veh FAM167A (11723789_a_at) / RFU FAM26E (11764081_at) / Fold change /veh FAM26E (11764081_at) / RFU ISYNA1 (11749810_s_at) / Fold change /veh ISYNA1 (11749810_s_at) / RFU ACY1 (11761880_at) / Fold change /veh ACY1 (11761880_at) / RFU 11764098_at / Fold change /veh 11764098_at / RFU SAMD14 (11745864_x_at) / Fold change /veh SAMD14 (11745864_x_at) / RFU NPB (11741838_a_at) / Fold change /veh NPB (11741838_a_at) / RFU TMPRSS6 (11731388_a_at) / Fold change /veh TMPRSS6 (11731388_a_at) / RFU KRTAP10-2 (11738614_at) / Fold change /veh KRTAP10-2 (11738614_at) / RFU ARHGAP8 /// PRR5-ARHGAP8 (11727945_x_at) / Fold change /veh ARHGAP8 /// PRR5-ARHGAP8 (11727945_x_at) / RFU KRTAP5-7 /// NADSYN1 (11734609_at) / Fold change /veh KRTAP5-7 /// NADSYN1 (11734609_at) / RFU RASL12 (11751679_a_at) / Fold change /veh RASL12 (11751679_a_at) / RFU CDKN2B (11736163_a_at) / Fold change /veh CDKN2B (11736163_a_at) / RFU PRF1 (11729649_at) / Fold change /veh PRF1 (11729649_at) / RFU, ZNF638 /// ZNF638-IT1 / Fold change vs veh, ZNF638 /// ZNF638-IT1 / RFU, PANK3 / Fold change vs veh, PANK3 / RFU, SH3YL1 / Fold change vs veh, SH3YL1 / RFU, ZEB2 / Fold change vs veh, ZEB2 / RFU, NRIP1 / Fold change vs veh, NRIP1 / RFU, PTTG1IP / Fold change vs veh, PTTG1IP / RFU, CAPN2 / Fold change vs veh, CAPN2 / RFU, MED14 / Fold change vs veh, MED14 / RFU, SNORA58 / Fold change vs veh, SNORA58 / RFU, C1orf63 / Fold change vs veh, C1orf63 / RFU, LRRFIP1 / Fold change vs veh, LRRFIP1 / RFU, NDUFAF7 / Fold change vs veh, NDUFAF7 / RFU, SLC12A2 / Fold change vs veh, SLC12A2 / RFU, IBTK / Fold change vs veh, IBTK / RFU, ESF1 / Fold change vs veh, ESF1 / Fold change vs veh, TMEM50B / RFU, TAOK1 / Fold change vs veh, TAOK1 / RFU, ACBD3 / Fold change vs veh, ACBD3 / RFU, TMA16 / Fold change vs veh, TMA16 / RFU, RWDD3 / Fold change vs veh, RWDD3 / RFU, BCAT1 / Fold change vs veh, BCAT1 / RFU, EDEM3 / Fold change vs veh, EDEM3 / RFU, TMEM33 / Fold change vs veh, TMEM33 / RFU, WDR75 / Fold change vs veh, WDR75 / RFU, AHCTF1 / Fold change vs veh, AHCTF1 / RFU, TFRC / Fold change vs veh, TFRC / RFU, ZDHHC17 / Fold change vs veh, ZDHHC17 / RFU, NOM1 / Fold change vs veh, NOM1 / RFU, ARL8B / Fold change vs veh, ARL8B / RFU, ZBTB11 / Fold change vs veh, ZBTB11 / RFU, TAMM41 / Fold change vs veh, TAMM41 / RFU, KIAA1704 /// LOC100996395 / Fold change vs veh, KIAA1704 /// LOC100996395 / RFU, ING1 / Fold change vs veh, ING1 / RFU, TRMT61B / Fold change vs veh, TRMT61B / RFU, FUBP3 / Fold change vs veh, FUBP3 / RFU, TP53 / Fold change vs veh, TP53 / RFU, TNKS2 / Fold change vs veh, TNKS2 / RFU, ZFP14 / Fold change vs veh, ZFP14 / RFU, ACTR2 / Fold change vs veh, ACTR2 / RFU, PPP3R1 / Fold change vs veh, PPP3R1 / RFU, PIK3R1 / Fold change vs veh, PIK3R1 / RFU, HNRNPA1 / Fold change vs veh, HNRNPA1 / RFU, RNF170 / Fold change vs veh, RNF170 / RFU, ZNF28 / Fold change vs veh, ZNF28 / RFU, RNGTT / Fold change vs veh, RNGTT / RFU, OGT / Fold change vs veh, OGT / RFU, BRD1 / Fold change vs veh, BRD1 / RFU, MARS / Fold change vs veh, MARS / RFU, ZNF655 / Fold change vs veh, ZNF655 / RFU, FAHD1 / Fold change vs veh, FAHD1 / RFU, BDP1 / Fold change vs veh, BDP1 / RFU, LRRCC1 / Fold change vs veh, LRRCC1 / RFU, ARID1A / Fold change vs veh, ARID1A / RFU, ZNF146 / Fold change vs veh, ZNF146 / RFU, ZNF330 / Fold change vs veh, ZNF330 / RFU, GPN3 / Fold change vs veh, GPN3 / RFU, C9orf123 / Fold change vs veh, C9orf123 / RFU, N4BP2L2 / Fold change vs veh, N4BP2L2 / RFU, ARFIP1 / Fold change vs veh, ARFIP1 / RFU, FAM179B / Fold change vs veh, FAM179B / RFU, BCL10 / Fold change vs veh, BCL10 / RFU, UHRF1BP1L / Fold change vs veh, UHRF1BP1L / RFU, BET1 / Fold change vs veh, BET1 / RFU, CNOT2 / Fold change vs veh, CNOT2 / RFU, ZNF268 / Fold change vs veh, ZNF268 / Fold change vs veh, ZNF507 / RFU, DGCR2 / Fold change vs veh, DGCR2 / RFU, WDSUB1 / Fold change vs veh, WDSUB1 / Fold change vs veh, HSP90B1 /// MIR3652 / RFU, ADSS / Fold change vs veh, ADSS / RFU, GK / Fold change vs veh, GK / RFU, ZNF148 / Fold change vs veh, ZNF148 / RFU, TAF9 / Fold change vs veh, TAF9 / RFU, SLC1A5 / Fold change vs veh, SLC1A5 / RFU, SLMO2 / Fold change vs veh, SLMO2 / RFU, ABCC4 / Fold change vs veh, ABCC4 / RFU, LOC101060439 /// RAP1B / Fold change vs veh, LOC101060439 /// RAP1B / RFU, RFX7 / Fold change vs veh, RFX7 / RFU, GTPBP10 / Fold change vs veh, GTPBP10 / RFU, CNEP1R1 / Fold change vs veh, CNEP1R1 / RFU, BIVM-ERCC5 /// ERCC5 / Fold change vs veh, BIVM-ERCC5 /// ERCC5 / RFU, ILF3 / Fold change vs veh, ILF3 / RFU 11762660_at / Fold change /veh 11762660_at / RFU VCAN (11757783_s_at) / Fold change /veh VCAN (11757783_s_at) / RFU DDX43 (11728927_at) / Fold change /veh DDX43 (11728927_at) / RFU KRT8 (11758188_x_at) / Fold change /veh KRT8 (11758188_x_at) / RFU NKD1 (11759106_at) / Fold change /veh NKD1 (11759106_at) / RFU SRD5A1 (11742802_a_at) / Fold change /veh SRD5A1 (11742802_a_at) / RFU TPSAB1 /// TPSB2 (11721975_s_at) / Fold change /veh TPSAB1 /// TPSB2 (11721975_s_at) / RFU GSTM3 (11746129_a_at) / Fold change /veh GSTM3 (11746129_a_at) / RFU IL23R (11737362_x_at) / Fold change /veh IL23R (11737362_x_at) / RFU TMEM51 (11727254_a_at) / Fold change /veh TMEM51 (11727254_a_at) / RFU PIWIL2 (11732686_x_at) / Fold change /veh PIWIL2 (11732686_x_at) / RFU ORM1 (11744905_x_at) / Fold change /veh ORM1 (11744905_x_at) / RFU CCDC152 (11743942_at) / Fold change /veh CCDC152 (11743942_at) / RFU ECM1 (11717891_a_at) / Fold change /veh ECM1 (11717891_a_at) / RFU IL23R (11748794_a_at) / Fold change /veh IL23R (11748794_a_at) / RFU TNFAIP8L3 (11732012_x_at) / Fold change /veh TNFAIP8L3 (11732012_x_at) / RFU MBOAT4 (11741988_at) / Fold change /veh MBOAT4 (11741988_at) / RFU 11764193_at / Fold change /veh 11764193_at / RFU TMEM53 (11763286_at) / Fold change /veh TMEM53 (11763286_at) / RFU MAGEB2 (11727129_at) / Fold change /veh MAGEB2 (11727129_at) / RFU TMEM200A (11744735_a_at) / Fold change /veh TMEM200A (11744735_a_at) / RFU CCDC152 (11751479_a_at) / Fold change /veh CCDC152 (11751479_a_at) / RFU FAM211A (11726209_a_at) / Fold change /veh FAM211A (11726209_a_at) / RFU RGS16 (11746705_a_at) / Fold change /veh RGS16 (11746705_a_at) / RFU VCAN (11755009_s_at) / Fold change /veh VCAN (11755009_s_at) / RFU RHOB (11743442_s_at) / Fold change /veh RHOB (11743442_s_at) / RFU RGS16 (11720943_a_at) / Fold change /veh RGS16 (11720943_a_at) / RFU RGS16 (11720944_at) / Fold change /veh RGS16 (11720944_at) / RFU, VPS4B / Fold change vs veh, VPS4B / RFU, CREB1 / Fold change vs veh, CREB1 / RFU, DNAJC13 / Fold change vs veh, DNAJC13 / RFU, GNAQ / Fold change vs veh, GNAQ / RFU, CDK5R1 / Fold change vs veh, CDK5R1 / RFU, ZRANB3 / Fold change vs veh, ZRANB3 / RFU, CUL4A / Fold change vs veh, CUL4A / RFU, CCNY / Fold change vs veh, CCNY / RFU, UFL1 / Fold change vs veh, UFL1 / RFU, COG3 / Fold change vs veh, COG3 / RFU, DIAPH2 / Fold change vs veh, DIAPH2 / RFU, SKA2 / Fold change vs veh, SKA2 / RFU, AFF3 / Fold change vs veh, AFF3 / RFU, LMF1 / Fold change vs veh, LMF1 / RFU, IPO11 / Fold change vs veh, IPO11 / RFU, DFFB / Fold change vs veh, DFFB / RFU, FOXP1 / Fold change vs veh, FOXP1 / RFU, CARD8 / Fold change vs veh, CARD8 / RFU, STRN3 / Fold change vs veh, STRN3 / RFU, ADK / Fold change vs veh, ADK / RFU, RASSF2 / Fold change vs veh, RASSF2 / RFU, WIPF1 / Fold change vs veh, WIPF1 / RFU, LARP1B / Fold change vs veh, LARP1B / RFU, RASA1 / Fold change vs veh, RASA1 / RFU, RB1 / Fold change vs veh, RB1 / RFU, PPFIA1 / Fold change vs veh, PPFIA1 / RFU, MAT2A / Fold change vs veh, MAT2A / RFU, CCT5 / Fold change vs veh, CCT5 / RFU, WDR92 / Fold change vs veh, WDR92 / RFU, CUX1 / Fold change vs veh, CUX1 / RFU, TTC7A / Fold change vs veh, TTC7A / RFU, TMEM135 / Fold change vs veh, TMEM135 / RFU, DEPTOR / Fold change vs veh, DEPTOR / RFU, CPM / Fold change vs veh, CPM / RFU, DNAJB6 / Fold change vs veh, DNAJB6 / RFU, CACNA2D3 / Fold change vs veh, CACNA2D3 / RFU, DTX4 / Fold change vs veh, DTX4 / RFU, TFCP2 / Fold change vs veh, TFCP2 / RFU, GMCL1 /// GMCL1P1 / Fold change vs veh, GMCL1 /// GMCL1P1 / RFU, AEBP2 / Fold change vs veh, AEBP2 / RFU, SNHG1 /// SNORD22 /// SNORD25 /// SNORD26 /// SNORD27 /// SNORD28 /// SNORD29 /// SNORD31 / Fold change vs veh, SNHG1 /// SNORD22 /// SNORD25 /// SNORD26 /// SNORD27 /// SNORD28 /// SNORD29 /// SNORD31 / Fold change (Aza/veh), C12orf56 (ProbeSet 11735607_a_at) / Fold change (ACY-1035/veh), C12orf56 (ProbeSet 11735607_a_at) / Fold change (Aza/veh), FGFR1OP (ProbeSet 11751329_s_at) / Fold change (ACY-1035/veh), FGFR1OP (ProbeSet 11751329_s_at) / Fold change (Aza/veh), VPS36 (ProbeSet 11739960_a_at) / Fold change (ACY-1035/veh), VPS36 (ProbeSet 11739960_a_at) / RFU SYPL1 (11715823_x_at) / Fold change /veh SYPL1 (11715823_x_at) / RFU IGFBP7 (11715501_s_at) / Fold change /veh IGFBP7 (11715501_s_at) / RFU REEP3 (11722064_at) / Fold change /veh REEP3 (11722064_at) / RFU IGLL1 (11728026_x_at) / Fold change /veh IGLL1 (11728026_x_at): dose or concentration left out as unconfirmed
Conditions: MV-4-11 cells, 48 hours

For Nc1ccc(-c2cccs2)cc1NC(=O)c1ccc2c(c1)cc(C1CC1)n2CCN1CCOCC1 [ACY-1035], the “RFU DDX43 (11728927_at)” value was 10.07 RFU.
